In patent US5608081A, “Hydroxymethylpolythiophene derivatives” (Industrial Technology Research Institute, priority 1995, dated 1997):

Test: Anti-edema activity, conventional toe edema method using carrageenan as pyrogen and indomethacin as control inhibitory agent
Assay type: in vivo
Conditions: inhibition rate above 30% considered also antiinflammatory
Method: The anti-edema activity was tested according to the conventional toe edema method using carrageenan as pyrogen and indomethacin as control inhibitory agent. See C. A. Winter, E. A. Risley and G. W. Nuss, Biol. Med., 111, 544 (1962); and A. P. Roszkowshi, W. H. Rooks II, A. J. Tomolonis and L. M. Miller, J. Pharmacol. Exp. Ther., 179, 114 (1971), both of which are hereby incorporated by reference.
In general, polythiophene derivatives of this invention have shown significant anti-edema activity.

SMILES	Anti-edema effect, inhibition rate (dosage 10 mg/kg) [%]	Anti-edema effect, inhibition rate (dosage 50 mg/kg) [%]	Anti-edema effect, inhibition rate (dosage 100 mg/kg) [%]	Anti-edema effect, inhibition rate (dosage 200 mg/kg) [%]
OCc1ccc(-c2ccc(CO)s2)s1	26	34	37	41
CC(=O)OCc1ccc(-c2ccc(COC(C)=O)s2)s1		17	28	28
OCCC#Cc1ccc(-c2cccs2)s1		32	36	38
